# Data reported in patent publication US5416222A, “3-pyrrolidine methanamines wherein the alpha-carbon is substituted by 1 or 2 lower alkyl groups which are intermediates for pyridone-carboxylic acid derivatives” (Daiichi Seiyaku Co., Ltd., priority 1985, dated 1995).
# Columns and labels:
# E. coli, NIHJ = test: antimicrobial activity, MIC, standard process of Japan Society of Chemotherapy; assay type: cell-based
# Procedure: (§1) The antimicrobial activities of the compounds of the present invention were determined according to a standard process designated by the Japan Society of Chemotherapy and the minimum growth inhibitory concentrations (MIC) (μg/ml) the compounds were determined.
# Pr. mirabilis, IF03849 = test: as above; assay type: cell-based; conditions: for minimum growth inhibitory concentration (MIC): Pr. mirabilis
# Procedure: as §1
# Pr. vulgaris, 3167 = test: as above; assay type: cell-based; conditions: for minimum growth inhibitory concentration (MIC): Pr. vulgaris
# Procedure: as §1
# Ps. aeruginosa, 2063 = test: as above; assay type: cell-based; conditions: for minimum growth inhibitory concentration (MIC): Ps. aeruginosa
# Procedure: as §1
# Ps. aeruginosa, 2128 = test: as above; assay type: cell-based; conditions: for minimum growth inhibitory concentration (MIC): Ps. aeruginosa
# Procedure: as §1
# Ps. cepacia, IID1340 = test: as above; assay type: cell-based; conditions: for minimum growth inhibitory concentration (MIC): Ps. cepacia
# Procedure: as §1
# Ps. maltophilia, IID1275 = test: as above; assay type: cell-based; conditions: for minimum growth inhibitory concentration (MIC): Ps. maltophilia
# Procedure: as §1
# S. aureus, 209P = test: as above; assay type: cell-based
# Procedure: as §1
# Ser. marcescens, 13001 = test: as above; assay type: cell-based; conditions: for minimum growth inhibitory concentration (MIC): Ser. marcescens
# Procedure: as §1
# Sh. flexneri, 2a5503 = test: as above; assay type: cell-based
# Procedure: as §1
# [1] = system: Str. faecalis, ATCC 19433; test: as above; assay type: cell-based; conditions: for minimum growth inhibitory concentration (MIC): Str. faecalis
# Procedure: as §1
# Str. pyogenes, G-36 = test: as above; assay type: cell-based; conditions: for minimum growth inhibitory concentration (MIC): Str. pyogenes
# Procedure: as §1
# physchem = assay type: physicochemical; conditions: water
# Procedure: (§2) The water-solubility and acute toxicity of the compounds of the present invention and the comparative compounds, were measured. The results obtained are shown hereunder. The water-solubility was measured by the following method.
# (i) Preparation of standard solution
# About 400 μg of the sample to be measured was accurately weighed (the weight was defined as W μg), and 0.1N NaOH solution was added thereto to bring the whole volume to 50 ml. The UV absorbance of a given amount of the solution was measured and the measured absorbance was defined as A1.
# (ii) Preparation of sample to be measured
# Distilled water was added to the sample to be measured (fine powder) in such amount that the sample was not completely dissolved but suspended, and then the suspension was vigorously agitated at room temperature (between 23° and 26° C.) for 30 minutes. Insoluble matter of the sample was removed therefrom by filtration, after which 3 ml sample of the filtrate (satulated aqueous solution of the sample) was taken. 3 ml of 0.2N NaOH solution was added to the filtrate sample to bring the total volume to 6 ml (i.e. the filtrate was diluted to 50% concentration.) To 1 ml of the resulting solution, 0.1N NaOH solution was further added to bring the total volume to 25 ml […]. In this connection, degree of dilution was occasionally changed, depending on degree of UV absorbance. The UV absorbance of the given amount of the solution was measured and the resulting absorbance was defined to as A2. Where the number of dilution is N, water-solubility (s) is obtained from the following equation: [formula]
# mouse = test: acute toxicity to mouse; assay type: in vivo; conditions: 200 mg/kg; i.v.
# Procedure: as §2
# *200 mg/kg; i.v, (deaths/total number) As is obvious from the above
# [2] = absorption after oral administration to rats; assay type: in vivo; conditions: rat, 20 mg/kg
# Procedure: The compounds of the present invention and the comparative compound were orally given to rats (one group: 5 rats) at a dose of 20 mg/kg to measure the oral absorption of the compounds. The concentration of the compound in the blood of the rat was measured at 15 minutes, 30 minutes, and 1, 2, 3, 4, and 6 hours after administration.
# Serum half lives (T1/2) were calculated as 0.693/Kel, where Kel is the elimination rate constant determined by linear regression analysis of the natural logarithm of serum concentration-time data. The area under the serum concentration-versus time curve from zero to 6 h (AUC0-6H) was calculated by the trapezoidal method, The results obtained are as follows: […]
# [3] = in words, prior art discussion; cited from earlier work
# [4] = system: Gram-negative microorganisms; conditions: in words, prior art discussion; cited from earlier work
# S. epidermidis, 56500 = test: antimicrobial activity, MIC, standard process of Japan Society of Chemotherapy; assay type: cell-based; conditions: S. epidermidis
# Procedure: as §1
# [5] = system: Gram-negative microorganisms; test: antimicrobial activity against Gram-negative microorganisms (in words); assay type: cell-based
# Procedure: as §1
# [6] = system: Gram-positive microorganisms; test: antimicrobial activity against Gram-positive microorganisms (in words); assay type: cell-based
# Procedure: as §1
Compound,"minimum growth inhibitory concentration (MIC) (E. coli, NIHJ) [µg/mL]","minimum growth inhibitory concentration (MIC) (Pr. mirabilis, IF03849) [µg/mL]","minimum growth inhibitory concentration (MIC) (Pr. vulgaris, 3167) [µg/mL]","minimum growth inhibitory concentration (MIC) (Ps. aeruginosa, 2063) [µg/mL]","minimum growth inhibitory concentration (MIC) (Ps. aeruginosa, 2128) [µg/mL]","minimum growth inhibitory concentration (MIC) (Ps. cepacia, IID1340) [µg/mL]","minimum growth inhibitory concentration (MIC) (Ps. maltophilia, IID1275) [µg/mL]","minimum growth inhibitory concentration (MIC) (S. aureus, 209P) [µg/mL]","minimum growth inhibitory concentration (MIC) (S. epidermidis, 56500) [µg/mL]","minimum growth inhibitory concentration (MIC) (Ser. marcescens, 13001) [µg/mL]","minimum growth inhibitory concentration (MIC) (Sh. flexneri, 2a5503) [µg/mL]",minimum growth inhibitory concentration (MIC) [1] [µg/mL],"minimum growth inhibitory concentration (MIC) (Str. pyogenes, G-36) [µg/mL]",anti-microbial activity against Gram-negative microorganisms [5],anti-microbial activity against Gram-positive microorganisms [6],further results
"CNCC1CCN(c2c(F)cc3c(=O)c(C(=O)O)cn(C4CC4)c3c2F)C1 (stereo not shown) [Compound B, 1-cyclopropyl-6,8-difluoro-(3-methylaminomethyl-1-pyrolidinyl)-1,4-dihydro-4-oxoquinoline-3-carboxylic acid, reference compound]",–,–,–,–,–,–,–,–,–,–,–,–,–,–,–,"MIC (E. coli, NIHJ; Escherichia coli, read-out: minimum growth inhibitory concentration (MIC)): ≤ 0.05 µg/mL; MIC (Pr. mirabilis, IF03849; Proteus mirabilis, IF03849, Pr. mirabilis, read-out: minimum growth inhibitory concentration (MIC)): ≤ 0.05 µg/mL; MIC (Pr. vulgaris, 3167; Proteus vulgaris, 3167, Pr. vulgaris, read-out: minimum growth inhibitory concentration (MIC)): ≤ 0.05 µg/mL; MIC (Ps. aeruginosa, 2063; Pseudomonas aeruginosa, 2063, Ps. aeruginosa, read-out: minimum growth inhibitory concentration (MIC)): 0.2 µg/mL; MIC (Ps. aeruginosa, 2128; Pseudomonas aeruginosa, 2128, Ps. aeruginosa, read-out: minimum growth inhibitory concentration (MIC)): 0.2 µg/mL; MIC (Ps. cepacia, IID1340; Burkholderia cepacia, IID1340, Ps. cepacia, read-out: minimum growth inhibitory concentration (MIC)): 1.56 µg/mL; MIC (Ps. maltophilia, IID1275; Stenotrophomonas maltophilia, IID1275, Ps. maltophilia, read-out: minimum growth inhibitory concentration (MIC)): 0.2 µg/mL; MIC (S. aureus, 209P; Staphylococcus aureus, read-out: minimum growth inhibitory concentration (MIC)): ≤ 0.05 µg/mL; MIC (Ser. marcescens, 13001; Serratia marcescens, 13001, Ser. marcescens, read-out: minimum growth inhibitory concentration (MIC)): ≤ 0.05 µg/mL; MIC (Sh. flexneri, 2a5503; Shigella flexneri, read-out: minimum growth inhibitory concentration (MIC)): 0.1 µg/mL; MIC ([1]; Enterococcus faecalis, ATCC19433, Str. faecalis, read-out: minimum growth inhibitory concentration (MIC)): 0.1 µg/mL; MIC (Str. pyogenes, G-36; Streptococcus pyogenes, G36, Str. pyogenes, read-out: minimum growth inhibitory concentration (MIC)): 0.1 µg/mL; solubility at 0.5 h (physchem): 80 µg/mL; Acute toxicity to mouse (mouse): 2/5; half-life ([2]; serum half life, 0.693/Kel): 1.55 h; Cmax ([2]; serum, 5 rats per group): 1370 ng/mL; AUC(0-t) at 6 h ([2]; serum, zero to 6 h, trapezoidal method, read-out: AUC0-6H): 3610 ng·h/mL; water-solubility (prior art compounds) [3]: extremely low water-solubility; antimicrobial activity against Gram-negative microorganisms (prior art compounds) [4]: strong antimicrobial activity"
"CC(N)C1CCN(c2c(F)cc3c(=O)c(C(=O)O)cn(C4CC4)c3c2F)C1 (single isomer, unassigned) [Example 2, 7-[3-(1-Aminoethyl)-1-pyrrolidinyl]-1-cyclopropyl-6,8-difluoro-1,4-dihydro-4-oxoquinoline-3-carboxylic acid]",≤ 0.05,≤ 0.05,≤ 0.05,0.20,≤ 0.05,0.39,0.10,≤ 0.05,≤ 0.05,≤ 0.05,≤ 0.05,≤ 0.05,≤ 0.05,extremely strong anti-microbial activity,extremely strong anti-microbial activity,–
"CCn1cc(C(=O)O)c(=O)c2cc(F)c(N3CCC(C(C)N)C3)c(F)c21 (single isomer, unassigned) [Example 4, 7-[3-(1-Aminoethyl)-1-pyrrolidinyl]-1-ethyl-6,8-difluoro-1,4-dihydro-4-oxoquinoline-3-carboxylic acid]",≤ 0.05,0.20,0.05,0.20,0.10,0.78,0.39,≤ 0.05,≤ 0.05,0.10,≤ 0.05,≤ 0.05,≤ 0.05,extremely strong anti-microbial activity,extremely strong anti-microbial activity,–
